Article PMC11099041, “Tissue distribution and retention drives efficacy of rapidly clearing VHL-based PROTACs” (Communications Medicine, 2024)

Details: rat, in vivo, iv, 4 mg/kg
Description: Male Sprague Dawley rats, intact or bile-cannulated, were from Envigo RMS, Inc. The animals were acclimated to study conditions for five days prior to dose administration. During acclimation, animals were individually housed in suspended, stainless steel, wire-mesh cages. During the test period, animals were placed in Nalgene cages designed for the collection of urine, feces, and bile. Certified Rodent Diet #2016C or 2016CM (Envigo RMS, Inc.) were provided ad libitum. Water was provided fresh daily. Environmental controls for the animal room were set to maintain a temperature of 20-26 °C, a relative humidity of 50 ± 20%, and a 12-hour light/12-hour dark cycle. […] The vehicle for the IV dose was 20% 2-hydroxypropyl-β-cyclodextrin (HP-β-CD) in 50 mM sodium acetate buffer, pH 4.0. […] The supernatant was removed, and the formulation appeared to be a very slight yellow solution. Stability was checked by HPLC analysis of pre- and post-dose aliquots. Animals were not fasted. The actual amount administered was determined by weighing the dose syringe before and after dose administration. The IV dose of 4 mg/kg was administered via a tail vein. For QWBA rats, one animal/time point was prepared for QWBA at approximately 0.25, 1, 4, 8, 24, 48, 168, and 336 hours. […] Blood was maintained on wet ice until being aliquoted for radioanalysis and centrifuged to obtain plasma. […] Each carcass was drained, blotted dry, placed into an appropriately labeled bag, and placed on dry ice or stored at ~-70 °C for at least 2 hours. The frozen carcasses were embedded in chilled carboxymethylcellulose and frozen into blocks. Embedded carcasses were stored at ~-20 °C in preparation for autoradiographic analysis. The samples were stored at -70 °C before analysis. […] All samples were analyzed for radioactivity in PerkinElmer Model 2910TR liquid scintillation counters for at least 5 min or 100,000 counts. Each sample was homogenized or mixed, as applicable, before radioanalysis in duplicate within 10% of the mean value. Scintillation counting data were automatically corrected for counting efficiency using the external standardization technique and an instrument-stored quench curve generated from a series of sealed quenched standards. […] The samples were allowed to sit at least overnight to allow any foaming to dissipate. Ultima Gold XR scintillation cocktail was added, and the samples were shaken and analyzed by liquid scintillation counting (LSC). Plasma was also analyzed by LSC. The urine, bile, cage rinse, and cage wash samples were mixed by shaking, and duplicate weighed aliquots were analyzed directly by LSC. The mean time concentration profile was generated for each group, and an overall AUC was then calculated with these sparse samples of rats and mice. […] The following parameters were estimated whenever possible: C0, Back-extrapolated concentration at time 0; Cmax, Maximum observed concentration; Tmax, Time of maximum observed concentration; AUC0-t, Area under the concentration-time curve from hour 0 to the last measurable concentration, estimated by the linear trapezoidal rule; AUC0-336, Area under the concentration-time curve from hour 0 to hour 336, estimated by the linear trapezoidal rule; DN AUC0-336, Dose normalized AUC0-336, calculated as AUC0-336/dose level; AUC0-∞, Area under the concentration-time curve from hour 0 to infinity (Day 1 only), calculated as follows: AUC0-∞ = AUC0-t + Ct/λz, where Ct is the last measurable concentration and λz is the elimination rate constant; t1/2, Elimination half-life, determined by ln(2)/λz; CL, Clearance, calculated as dose/AUC0-inf; Vd, Volume of distribution based on the terminal phase, calculated as: dose/(λz × AUC0-∞) Nominal doses and sampling times were used. […] Embedded zeros were excluded from kinetic analysis.

Compound: Cc1ncsc1-c1ccc(C(C)NC(=O)C2CC(O)CN2C(=O)C(c2cc(N3CCC(CN4CCC(OC5CC(Oc6cc(N7C8CCC7CN(c7cc(-[14c]9[14cH][14cH][14cH][14cH][14c]9O)nnc7N)C8)ccn6)C5)CC4)CC3)no2)C(C)C)cc1 (stereo not drawn) [14C-A947]
- AUC0–∞ in plasma and blood: ~ 18 µg h/g
- Cmax of radioactivity in blood: 1.13 µg/g
- Cmax of radioactivity in plasma: 1.22 µg/g
- Initial decrease of radioactivity in blood and plasma: greater than 90%
- Radioactivity in plasma and blood at 336 hours: 3 to 6 ng/g
- Terminal clearance (CL): ~ 5.8 mL/min/kg
- Terminal elimination half-life (t1/2) in plasma and blood: 72 to 75 h
- Tmax in blood and plasma: 0.25 h
- Volume of distribution (Vd): 23.9 L/kg
